According to PubChem BioAssay (NCI):
“And” between values parts separate entries of the source, which are not always exact repeats. Equal values may be shown once.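 Step 1: Grow cells in 96-well plates. Step 2: Expose to compound for 48 hours at 5 concentrations. Step 3: Interpolate endpoints linearly; if unreached, use highest concentration. The concentration for 50% growth inhibition is given as GI50. TGI marks complete inhibition of growth.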

Legend:
Assay in all cases: DTP human tumour cell line panel, 48 h
CAKI-1 renal = test system: CAKI-1 renal
HOP-92 NSCLC = test system: HOP-92 NSCLC
RPMI-8226 leukemia = test system: RPMI-8226 leukemia
PC-3 prostate = test system: PC-3 prostate
K-562 leukemia = test system: K-562 leukemia
NCI-H226 lung = test system: NCI-H226 lung
SW-620 colon = test system: SW-620 colon
COLO 205 colon = test system: COLO 205 colon
T-47D breast = test system: T-47D breast
MOLT-4 leukemia = test system: MOLT-4 leukemia

Compound | GI50 (CAKI-1 renal) [µM] | TGI (CAKI-1 renal) | GI50 (HOP-92 NSCLC) [µM] | TGI (HOP-92 NSCLC) | GI50 (RPMI-8226 leukemia) [µM] | TGI (RPMI-8226 leukemia) | GI50 (PC-3 prostate) [µM] | TGI (PC-3 prostate) [µM] | TGI (K-562 leukemia) | TGI (NCI-H226 lung) | TGI (SW-620 colon) | TGI (COLO 205 colon) | TGI (T-47D breast) [µM] | TGI (MOLT-4 leukemia) | GI50 (NCI-H226 lung) [µM] | GI50 (SW-620 colon) [µM] | GI50 (T-47D breast) [µM] | GI50 (MOLT-4 leukemia) [µM] | GI50 (K-562 leukemia) [µM] | GI50 (COLO 205 colon) [µM]
Cc1[nH]c(C(=O)Nc2ccc(C(=O)NCCN)cc2OC(C)C)c(Cl)c1Cl | 1.63 | 3.04 µM | 1.3 | 2.87 µM | 1.92 | 4.49 µM | 1.82 | 3.53 | – | – | – | – | – | – | – | – | – | – | – | –
c1ccc(/C(=N\Nc2nc3ccccc3[nH]2)c2ccccn2)cc1 | – | 8.79 µM | – | 0.887 µM | – | 1.07 µM | – | 37.7 | > 100 µM | 2.09 µM | > 69.4 µM | 3.31 µM | 27 | 51.9 µM | – | – | – | – | – | –
CC(C)CCN(CCC(C)C)CC(=O)Nc1ccc(S(=O)(=O)c2ccc(NC(=O)CN(CCC(C)C)CCC(C)C)cc2)cc1 | – | – | 1.68 | 3.64 µM | – | – | 2.01 | 5.89 | – | 11.5 µM | 3.74 µM | – | 4.29 | 7.44 µM | 2.91 | 1.55 | 1.4 | 2.28 | – | –
C[N+]1(C(CO)Cc2c[nH]c3ccccc23)Cc2ccccc2C1 (centres undefined) | – | > 100 µM | – | > 100 µM | – | > 100 µM | – | > 100 | > 100 µM | > 100 µM | > 100 µM | > 100 µM | > 100 | > 100 µM | – | – | – | – | – | –
C[n+]1c2ccccc2c(N=[N+]=[N-])c2ccccc21 | – | > 10 µM | – | – | – | > 10 µM | – | > 10 | > 10 µM | > 10 µM | > 10 µM | > 10 µM | > 10 | > 10 µM | – | – | – | – | – | –
C=C(CN(C)C)C(=O)c1ccccc1OC | – | 26.1 µM | – | 32.1 µM | – | > 62.7 µM | – | 31.9 | > 54.1 µM | 62.7 µM | 19.6 µM | 11 µM | 38.5 | > 20.8 µM | – | – | – | – | – | –
O=C1OC(c2ccc(O)cc2)(c2ccc(O)cc2)c2ccc(Cl)c3cccc1c23 (tested in a mixture with another compound) | – | 22 µM | – | > 75 µM | – | 28.4 µM | – | 20.6 | > 75 µM | 34 µM | 33.4 µM | 9.06 µM | – | – | – | – | – | – | – | –
O=C1Nc2cccc(Cl)c2/C1=C\c1cccnc1 | – | 24.2 µM | – | 68 µM | – | – | – | > 100 | 36.5 µM | – | 37.7 µM | 15.9 µM | 16.6 | 10.2 µM | – | – | – | – | – | –
CCCCCCCCCCCCc1ccc(S(=O)(=O)O)cc1.[Cu+2] | – | > 100 µM | – | > 100 µM | – | > 100 µM | – | > 100 | > 100 µM | – | > 100 µM | > 100 µM | > 100 | > 100 µM | – | – | – | – | – | –
COc1ccccc1C#C/C=C\C#Cc1ccccc1C#N | – | 61.5 µM | – | > 100 µM | – | – | – | > 100 | > 100 µM | – | 65.7 µM | 37.1 µM | > 100 | 38.4 µM | – | – | – | – | – | –
CC(=O)OC(C(=O)O)C(OC(C)=O)C(OC(C)=O)C(OC(C)=O)C(=O)O (centres undefined) | – | > 100 µM | – | > 100 µM | – | > 100 µM | – | > 100 | > 100 µM | > 100 µM | > 100 µM | > 100 µM | – | > 100 µM | – | – | – | – | – | –
O=C(CSCC(=O)N/N=C\c1ccc(F)cc1F)N/N=C\c1ccc(F)cc1F | – | > 100 µM | – | > 100 µM | – | > 100 µM | – | – | – | > 100 µM | > 100 µM | > 100 µM | > 100 | > 100 µM | – | – | – | – | – | –
CC(C)CNC1=NCC(C)S1 (centres undefined) | – | > 100 µM | – | > 100 µM | – | > 100 µM | – | > 100 | > 100 µM | > 100 µM | > 100 µM | > 100 µM | > 100 | > 100 µM | – | – | – | – | – | –
COC(=O)c1c(O)ccc2c1c1c(n2CCc2ccc(OC)c(OC)c2)C(=O)c2ccccc2C1=O | – | 38.3 µM | – | 43.6 µM | – | 28 µM | – | 35.9 | > 100 µM | 50.3 µM | – | 11.1 µM | 31.9 | 65.8 µM | – | – | – | – | – | –
CC[C@@]1(O)CC(OC2CC(N3CCOCC3)C(O)C(C)O2)c2c(O)c3c(c(O)c2[C@H]1O)C(=O)c1cccc(O)c1C3=O (some centres undefined) | – | 0.318 µM and 0.243 µM | 0.0725 | 0.383 µM and 0.871 µM | 0.0561 | 2.15 µM and 5.08 µM | – | 0.811 | 6.69 µM and 4.03 µM | 0.597 µM and 0.102 µM | 5.93 µM and 9.38 µM | 0.897 µM and 2.14 µM | 3.35 | 0.369 µM and 0.128 µM | 0.0184 | 0.121 | – | – | 0.0426 | 0.0433
O=C(O)c1cc2ccccc2c(N=Nc2ccc(S(=O)(=O)Nc3ccccn3)cc2)c1O | – | > 100 µM | – | > 100 µM | – | > 100 µM | – | > 100 | > 100 µM | > 100 µM | > 100 µM | > 100 µM | > 100 | > 100 µM | – | – | – | – | – | –
